Measurements reported in EP4737449A1 (Changchun Genescience Pharmaceutical Co., Ltd., priority 2023, dated 2025).
Where two headings read alike, the source gives them in different places.

Experiments:
NUGC-3 cells = test: NUGC-3 cell proliferation assay (CTG, 7 days); type: cell-based, human
Protocol: The cells were cultured in strict accordance with ATCC requirements.
Cell culture medium: 1640 culture medium, 10% serum, 1% penicillin + streptomycin.
Culture conditions: 37°C, 95% air, 5% carbon dioxide.
Compounds (20 mM) were subjected to gradient dilution in DMSO: 10 gradients, 3-fold dilution, duplicate wells.
Positive and negative controls (100% dimethyl sulfoxide) were prepared.
The compounds that were gradient diluted with DMSO and positive and negative controls (1st and 2nd step), each 75 nL, were transferred to 384-well cell culture plates by Echo550.
The cells were washed twice with PBS, digested with trypsin, and centrifuged for cell counting.
The experiment can only be carried out when the cell viability is above 90%.
The cells were plated into 384-well cell culture plates, with 200 (NUGC-3) cells and 30 µL of culture medium per well.
The 384-well microplate was placed in a cell culture incubator for 7 days.
30 µL of CTG detection reagent was added to the 384-well microplate.
The 384-well microplate was incubated for 30 min at 37°C, 5% carbon dioxide in the dark.
The reading was performed by a multi-functional microplate reader Envision.
% Inhibition is calculated as follows: % Inhibition = 100−(Signalcmpd−SignalAve_BL)/(SignalAve_VC−SignalAve_BL)*100 [formula] • Signalcmpd: Average signal of the compound in the cell plate • Signalave_vc: Average signal of the negative control in the cell plate • Signalave_BL: Average signal of the blank wells in the cell plate
IC50 was calculated by fitting % inhibition and compound concentration logarithmically to a nonlinear regression (dose response - variable slope) using Graphpad 8.0. Table 2 IC50 of selected compounds in NUGC-3 cell proliferation assay

p53-Y220C mutant protein = molecular target: T1, p53-Y220C mutant protein (Homo sapiens, UniProt P04637, Y220C); test: In vitro DNA binding activity assay (TR-FRET); type: biochemical; settings: concentration required to increase the binding activity of protein to DNA by 50%
T1 construct: The recombinant Y220C p53 DBD protein with his-tag
In short: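 SC150, the compound concentration increasing p53-Y220C DNA binding by 50% relative to vehicle, came from background-corrected 665/615 nm TR-FRET ratios. His-tagged DBD and compound were preincubated 60 min at RT before biotin-DNA plus Eu-anti-His/streptavidin-d2 detection overnight in the dark.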

[1] = NUGC-3 cell proliferation, 7 days, CTG, read-out: IC50
[2] = Homo sapiens, NUGC-3, 168 h, NUGC-3 cell proliferation, 7 days, CTG, read-out: IC50

Row | SMILES | SC150 (p53-Y220C mutant protein) | IC50 (NUGC-3 cells; [2]) | also measured
1 | CC(C1CC1)n1ncc(C(=O)NCC#Cc2nn3c(N[C@@H]4CCN(C)C[C@@H]4F)cccc3c2CC(F)(F)F)c1N (single isomer, unassigned) [Compound 291A] | 3 nM | – | IC50 (NUGC-3 cells; [1]): 0.166 µM
2 | CC(C1CC1)n1ncc(C(=O)NCC#Cc2nn3c(N[C@@H]4CCN(C)C[C@@H]4F)cccc3c2CC(F)(F)F)c1N (single isomer, unassigned) [Compound 291B] | 4 nM | – | IC50 (NUGC-3 cells; [1]): 0.162 µM
3 | CN(C)C1CC[C@@H](Nc2cccc3c(CC(F)(F)F)c(C#CCNC(=O)c4cnn(C(C)(C)C)c4N)nn23)[C@@H](F)C1 (single isomer, unassigned) [Compound 358-A] | 2 nM | 0.123 µM | –
4 | CN1CC[C@@H](Nc2cccc3c(CC(F)(F)F)c(C#CCNC(=O)c4ccccc4)nn23)[C@@H](F)C1 [Compound 069, N-[3-(7-{[(3S,4R)-3-fluoro-1-methylpiperidin-4-yl]amino}-3-(2,2,2-trifluoroethyl)pyrazolo[1,5-a]pyridin-2-yl)prop-2-yn-1-yl]benzamide] | – | 2.85 µM | –
5 | COc1ccc(C(=O)NCC#Cc2nn3c(N[C@@H]4CCN(C)C[C@@H]4F)cccc3c2CC(F)(F)F)cc1 [Compound 070, N-[3-(7-{[(3S,4R)-3-fluoro-1-methylpiperidin-4-yl]amino}-3-(2,2,2-trifluoroethyl)pyrazolo[1,5-a]pyridin-2-yl)prop-2-yn-1-yl]-4-methoxybenzamide] | – | 3.32 µM | –
6 | COc1ccccc1C(=O)NCC#Cc1nn2c(N[C@@H]3CCN(C)C[C@@H]3F)cccc2c1CC(F)(F)F [Compound 071, N-[3-(7-{[(3S,4R)-3-fluoro-1-methylpiperidin-4-yl]amino}-3-(2,2,2-trifluoroethyl)pyrazolo[1,5-a]pyridin-2-yl)prop-2-yn-1-yl]-2-methoxybenzamide] | – | 4.56 µM | –
7 | CN1CC[C@@H](Nc2cccc3c(CC(F)(F)F)c(C#CCNC(=O)c4cccnc4)nn23)[C@@H](F)C1 [Compound 074, N-[3-(7-{[(3S,4R)-3-fluoro-1-methylpiperidin-4-yl]amino}-3-(2,2,2-trifluoroethyl)pyrazolo[1,5-a]pyridin-2-yl)prop-2-yn-1-yl]nicotinamide] | 51 nM | 1.86 µM | –
8 | CN1CC[C@@H](Nc2cccc3c(CC(F)(F)F)c(C#CCNC(=O)c4cn(C(C)(C)C)cn4)nn23)[C@@H](F)C1 [Compound 082, 1-tert-butyl-N-[3-(7-{[(3S,4R)-3-fluoro-1-methylpiperidin-4-yl]amino}-3-(2,2,2-trifluoroethyl)pyrazolo[1,5-a]pyridin-2-yl)prop-2-yn-1-yl]-1H-imidazole-4-carboxamide] | 20 nM | 1.09 µM | –
9 | CN1CC[C@@H](Nc2cccc3c(CC(F)(F)F)c(C#CCNC(=O)c4csc(C(C)(C)C)n4)nn23)[C@@H](F)C1 [Compound 088, 2-tert-butyl-N-[3-(7-{[(3S,4R)-3-fluoro-1-methylpiperidin-4-yl]amino}-3-(2,2,2-trifluoroethyl)pyrazolo[1,5-a]pyridin-2-yl)prop-2-yn-1-yl]-1,3-thiazole-4-carboxamide] | – | 7.11 µM | –
10 | CN1CC[C@@H](Nc2cccc3c(CC(F)(F)F)c(C#CCNC(=O)c4cnc(C(C)(C)C)s4)nn23)[C@@H](F)C1 [Compound 089, 2-tert-butyl-N-[3-(7-{[(3S,4R)-3-fluoro-1-methylpiperidin-4-yl]amino}-3-(2,2,2-trifluoroethyl)pyrazolo[1,5-a]pyridin-2-yl)prop-2-yn-1-yl]-1,3-thiazole-5-carboxamide] | – | 8.06 µM | –
11 | CN1CC[C@@H](Nc2cccc3c(CC(F)(F)F)c(C#CCNC(=O)c4coc(C(C)(C)C)n4)nn23)[C@@H](F)C1 [Compound 090, 2-tert-butyl-N-[3-(7-{[(3S,4R)-3-fluoro-1-methylpiperidin-4-yl]amino}-3-(2,2,2-trifluoroethyl)pyrazolo[1,5-a]pyridin-2-yl)prop-2-yn-1-yl]-1,3-oxazole-4-carboxamide] | – | 6.87 µM | –
12 | CN1CC[C@@H](Nc2cccc3c(CC(F)(F)F)c(C#CCNC(=O)C4CC4)nn23)[C@@H](F)C1 [Compound 135, N-[3-(7-{[(3S,4R)-3-fluoro-1-methylpiperidin-4-yl]amino}-3-(2,2,2-trifluoroethyl)pyrazolo[1,5-a]pyridin-2-yl)prop-2-yn-1-yl]cycloproplycarboxamide] | 22 nM | – | IC50 (NUGC-3 cells; Homo sapiens, NUGC-3, 168 h): 1.67 µM
13 | CN1CC[C@@H](Nc2cccc3c(CC(F)(F)F)c(C#CCNC(=O)c4cn(C(C)(C)C)nc4O)nn23)[C@@H](F)C1 [Compound 356, 1-(tert-butyl)-N-[3-(7-{[(3S,4R)-3-fluoro-1-methylpiperidin-4-yl]amino}-3-(2,2,2-trifluoroethyl)pyrazolo[1,5-a]pyridin-2-yl)prop-2-yn-1-yl]-3-hydroxy-1H-pyrazole-4-carboxamide] | 87 nM | – | –
14 | Cc1cc(N[C@@H]2CCN(C)C[C@@H]2F)n2nc(C#CCNC(=O)c3cnn(C(C)(C)C)c3N)c(CC(F)(F)F)c2c1 [Compound 360, 5-amino-1-tert-butyl-N-[3-(7-{[(3S,4R)-3-fluoro-1-methylpiperidin-4-yl]amino}-5-methyl-3-(2,2,2-trifluoroethyl)pyrazolo[1,5-a]pyridin-2-yl)prop-2-yn-1-yl]-1H-pyrazole-4-carboxamide] | 160 nM | – | –
15 | CC(C)(C)n1ncc(C(=O)NCC#Cc2nn3c(NC4CCOCC4)cccc3c2CC(F)(F)F)c1N [Compound 361, 5-amino-1-tert-butyl-N-(3-(7-[(tetrahydro-2H-pyran-4-yl)amino]-3-(2,2,2-trifluoroethyl)pyrazolo[1,5-a]pyridin-2-yl)prop-2-yn-1-yl)-1H-pyrazole-4-carboxamide] | 49 nM | – | –
16 | CC(C)c1c(C#CCNC(=O)c2cnn(C(C)(C)C)c2N)nn2c(N[C@@H]3CCN(C)C[C@@H]3F)cccc12 [Compound 362, 5-amino-1-tert-butyl-N-(3-(7-{[(3S,4R)-3-fluoro-1-methylpiperidin-4-yl]amino}-3-(prop-2-yl)pyrazolo[1,5-a]pyridin-2-yl)prop-2-yn-1-yl)-1H-pyrazole-4-carboxamide] | 98 nM | – | –
17 | CCN1CC[C@@H](Nc2cccc3c(CC(F)(F)F)c(C#CCNC(=O)c4cnn(CC)c4N)nn23)[C@@H](F)C1 [Compound 364, 5-amino-1-ethyl-N-(3-(7-{[(3S,4R)-1-ethyl-3-fluoropiperidin-4-yl]amino}-3-(2,2,2-trifluoroethyl)pyrazolo[1,5-a]pyridin-2-yl)prop-2-yn-1-yl)-1H-pyrazole-4-carboxamide] | – | 0.154 µM | –
18 | CN1CCC(Nc2cccc3c(CC(F)(F)F)c(C#CCNC(=O)c4cnn(C(C)(C)C)c4N)nn23)C1 (centres unmarked) [Compound 366, 5-amino-1-tert-butyl-N-(3-(7-[(1-methylpyrrolidin-3-yl)amino]-3-(2,2,2-trifluoroethyl)pyrazolo[1,5-a]pyridin-2-yl)prop-2-yn-1-yl)-1H-pyrazole-4-carboxamide] | 30 nM | – | –
19 | CN1CCC2(CC1)CC(Nc1cccc3c(CC(F)(F)F)c(C#CCNC(=O)c4cnn(C(C)(C)C)c4N)nn13)C2 [Compound 367] | 27 nM | – | –
20 | CN1CC2CCC(C1)C2Nc1cccc2c(CC(F)(F)F)c(C#CCNC(=O)c3cnn(C(C)(C)C)c3N)nn12 (centres unmarked) [Compound 368, 5-amino-1-(tert-butyl)-N-(3-(7-((3-methyl-3-azabicyclo[3.2.1]octan-8-yl)amino)-3-(2,2,2-trifluoroethyl)pyrazolo[1,5-a]pyridin-2-yl)prop-2-yn-1-yl)-1H-pyrazole-4-carboxamide] | 57 nM | – | –
21 | CN1CCC(Nc2cccc3c(CC(F)(F)F)c(C#CCNC(=O)c4cnn(C(C)(C)C)c4N)nn23)CC1 [Compound 370, 5-amino-1-tert-butyl-N-(3-(7-[(1-methylpiperidin-4-yl)amino]-3-(2,2,2-trifluoroethyl)pyrazolo[1,5-a]pyridin-2-yl)prop-2-yn-1-yl)-1H-pyrazole-4-carboxamide] | 9 nM | – | –
22 | COCC(O)CN1CCC(Nc2cccc3c(CC(F)(F)F)c(C#CCNC(=O)c4cnn(C(C)(C)C)c4N)nn23)CC1 (centres unmarked) [Compound 371, 5-amino-1-tert-butyl-N-[3-(7-{[1-(2-hydroxy-3-methoxypropy)piperidin-4-yl]amino}-3-(2,2,2-trifluoroethyl)pyrazolo[1,5-a]pyridin-2-yl)prop-2-yn-1-yl]-1H-pyrazole-4-carboxamide] | 12 nM | – | –
23 | CC(C)(C)n1ncc(C(=O)NCC#Cc2nn3c(N[C@@H]4CCN(C5CC5)C[C@@H]4F)cccc3c2CC(F)(F)F)c1N [Compound 372, 5-amino-1-tert-butyl-N-(3-(7-{[(3S,4R)-1-cyclopropyl-3-fluoropiperidin-4-yl]amino}-3-(2,2,2-trifluoroethyl)pyrazolo[1,5-a]pyridin-2-yl)prop-2-yn-1-yl)-1H-pyrazole-4-carboxamide] | 18 nM | – | –
